The subject of the assay is patients with IPSS Low to Intermediate-1 Risk Myelodysplastic Syndrome. Conditions: for patients achieving significant RBC transfusion reduction: no prior DMTI, five of 11 patients.

SMILES strings stand for the structures. Read-outs that look alike come from different tables or passages of the source.

Description: Eighty-seven patients were randomized and treated at 23 investigational sites. After initial dose ranging in 14 patients, two dose levels were selected for further study. Subsequently, 37 patients were treated at 3 grams daily for two weeks followed by a one week rest period, and 36 patients were treated at 2 grams daily for three weeks followed by a one week rest period. The data on these 73 patients was pooled for this preliminary analysis.

On to `CCOC(=O)[C@@H](N)CCC(=O)N[C@@H](CSCc1ccccc1)C(=O)N[C@@H](C(=O)OCC)c1ccccc1` [Telintra, ethyl (2S)-2-amino-5-[[(2R)-3-benzylsulfanyl-1-[[(1R)-2-ethoxy-2-oxo-1-phenylethyl]amino]-1-oxopropan-2-yl]amino]-5-oxopentanoate], for which the “increase in response rate, lenalidomide pre-treated vs not pre-treated patients” value (46% vs 22% response rate) was “over 100%”. Also, the cytogenetic complete responses result (all study patients) is reported as “three cytogenetic complete responses”. The “HI-E Response Rate (95% Confidence Interval)” value (efficacy evaluable patients with prior Revlimid (lenalidomide) treatment: Yes, N=13, listed as ezatiostat hydrochloride) is “about 46%”. Also, for the setting “four patients enrolled with del 5q minus, one responder had failed prior Revlimid”, the “complete cytogenetic response in del 5q minus patients” value was “two had a complete cytogenetic response”. Moreover, the “change in odds for a HI-E response with prior DMTI treatment” value (logistic regression analysis, p=0.023) is “five-fold decrease”. Further, the “patients achieving significant RBC transfusion reduction” value is, setting by setting: (no prior Revlimid) 45%; (prior Revlimid) 45%. For the same compound, the “duration of complete remission following discontinuation of therapy” value (one patient (Quddus et al.)) is reported as “more than 12 months”.

The values are drawn from US8759303B2, “Compositions and methods for treating myelodysplastic syndrome” (Telik, Inc., priority 2010, dated 2014).
